Experimental data: publication PMC6920704, “1-(Piperidin-3-yl)thymine amides as inhibitors of M. tuberculosis thymidylate kinase” (Journal of Enzyme Inhibition and Medicinal Chemistry, 2019)

Tests used:
[1] = biological target: T1, MtbTMPK (M. tuberculosis thymidylate kinase) (Mycobacterium tuberculosis, UniProt P9WKE1); experiment: coupled spectrophotometric assay (NADH, […] nm); type: biochemical; conditions: read-out: IC50MtbTMPK
T1 construct: gene tmk

[2] = biological target: T1, MtbTMPK (M. tuberculosis thymidylate kinase); experiment: coupled spectrophotometric assay (NADH, […] nm); type: biochemical; conditions: 0.5 mM ATP, 0.05 mM dTMP, 2 mM MgCl2, 50 mM KCl, 50 mM Tris-HCl pH 7.4, 30 °C; unreliable (above the highest tested concentration of 0.12 mM)

T1 sequence (P9WKE1 whole entry, looked up): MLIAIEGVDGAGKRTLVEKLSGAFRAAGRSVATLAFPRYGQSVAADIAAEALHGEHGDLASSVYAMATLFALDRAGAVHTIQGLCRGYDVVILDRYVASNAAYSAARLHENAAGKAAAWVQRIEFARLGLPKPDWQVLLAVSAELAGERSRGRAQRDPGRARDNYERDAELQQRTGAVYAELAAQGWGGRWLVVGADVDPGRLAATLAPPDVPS

Compound | IC50 [1] | IC50MtbTMPK [2]
Cc1cn(C2CCCN(C(=O)c3cccc(Oc4ccccc4)c3)C2)c(=O)[nH]c1=O (racemic) [compound 3, 3] | 28 ± 2 µM | 
Cc1cn(C2CCCN(C(=O)c3cccc(Oc4ccc([N+](=O)[O-])cc4)c3)C2)c(=O)[nH]c1=O (stereo not drawn) [4e] | 30 ± 3 µM | 
Cc1cn(C2CCCN(C(=O)c3cccc(Oc4cc(C(F)(F)F)cc(C(F)(F)F)c4)c3)C2)c(=O)[nH]c1=O (stereo not drawn) [4k] |  | 158 ± 89 µM
Cc1cn(C2CCCN(C(=O)c3cccc(Oc4cc(Cl)cc(Cl)c4)c3)C2)c(=O)[nH]c1=O (stereo not drawn) [4i] | 13 ± 1 µM | 
Cc1cn(C2CCCN(C(=O)c3cccc(Oc4cc(F)cc(F)c4)c3)C2)c(=O)[nH]c1=O (stereo not drawn) [4j] | 31 ± 2 µM | 
Cc1cn(C2CCCN(C(=O)c3cccc(Oc4ccc(Cl)cc4)c3)C2)c(=O)[nH]c1=O (stereo not drawn) [4c] | 39 ± 19 µM | 
Cc1cn(C2CCCN(C(=O)c3cccc(Oc4ccc(F)c(F)c4)c3)C2)c(=O)[nH]c1=O (stereo not drawn) [4h] | 23 ± 1 µM | 
Cc1cn(C2CCCN(C(=O)c3cccc(Oc4ccc(Cl)c(Cl)c4)c3)C2)c(=O)[nH]c1=O (stereo not drawn) [4g] | 18 ± 1 µM | 
Cc1cn(C2CCCN(C(=O)c3cccc(Oc4ccc(F)cc4)c3)C2)c(=O)[nH]c1=O (stereo not drawn) [4d] | 18 ± 1 µM | 
COc1cccc(Oc2cccc(C(=O)N3CCCC(n4cc(C)c(=O)[nH]c4=O)C3)c2)c1 (stereo not drawn) [4b] | 15 ± 1 µM | 
Cc1cn(C2CCCN(C(=O)c3cccc(Oc4cccc(C(F)(F)F)c4)c3)C2)c(=O)[nH]c1=O (stereo not drawn) [4f] | 53 ± 12 µM | 
Cc1cn(C2CCCN(C(=O)c3cccc(Oc4cccc(N(C)C)c4)c3)C2)c(=O)[nH]c1=O (stereo not drawn) [4a] | 39 ± 3 µM | 
